From the supplement of paper PMC10307832

How the values were obtained:
Test in all cases: relative viability (nuclei count vs DMSO), 5 days (fraction); higher = more cells survive
[1] = compound: CCC1=CN=CN=C1N2CCN(CC2)CC3=NC4=C(N3)C=C(C=C4)C(F)(F)F + CC(C)C[C@H](NC(=O)[C@H](Cc1ccccc1)NC(=O)c1cnccn1)B(O)O [Bortezomib] (partner 0.002 µM)
Summary of the method: (§1)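 Medians of duplicate plates are given as relative viability. That measure is the nuclei count in treated wells divided by the count in vehicle wells. Counts were taken on 4× images of lung cancer cell lines in 1536-well plates, 5 days after pin-tool dosing the day after seeding with one drug alone or a fixed anchor-drug dose plus five library-drug doses (not always all listed) in √10 steps.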

[2] = compound: CCC1=CN=CN=C1N2CCN(CC2)CC3=NC4=C(N3)C=C(C=C4)C(F)(F)F + COc1cc2c(Oc3ccc(NC(=O)C4(C(=O)Nc5ccc(F)cc5)CC4)cc3F)ccnc2cc1OCCCN1CCOCC1 [Foretinib] (partner 0.25 µM)
Summary of the method: as §1

[3] = compound: CCn1c(-c2nonc2N)nc2cnc(Oc3cccc(NC(=O)c4ccc(OCCN5CCOCC5)cc4)c3)cc21 + Cc1cc(Nc2cc(N3CCN(C)CC3)nc(Sc3ccc(NC(=O)C4CC4)cc3)n2)n[nH]1 [Tozasertib] (partner 0.1 µM)
Summary of the method: as §1

Mirin + Vorinostat = compound: N=C1NC(=O)/C(=C/c2ccc(O)cc2)S1 [Mirin] + O=C(CCCCCCC(=O)Nc1ccccc1)NO [Vorinostat] (partner 1 µM)
Summary of the method: as §1

NCI-H520
relative viability ([1]; first compound 0.04 µM): 0.699
relative viability ([1]; first compound 0.1265 µM): 0.48
relative viability ([1]; first compound 0.4 µM): 0.642
relative viability ([1]; first compound 1.265 µM): 0.534
relative viability ([1]; first compound 4 µM): 0.472
relative viability ([2]; first compound 0.04 µM): 0.795
relative viability ([2]; first compound 0.1265 µM): 0.626
relative viability ([2]; first compound 0.4 µM): 0.777
relative viability ([2]; first compound 1.265 µM): 0.588
relative viability ([2]; first compound 4 µM): 0.798
relative viability ([3]; first compound 0.04 µM): 0.419
relative viability ([3]; first compound 0.1265 µM): 0.368
relative viability ([3]; first compound 0.4 µM): 0.359
relative viability ([3]; first compound 1.265 µM): 0.345
relative viability ([3]; first compound 4 µM): 0.378
relative viability (Mirin + Vorinostat; first compound 0.25 µM): 0.67
relative viability (Mirin + Vorinostat; first compound 0.7906 µM): 0.807
relative viability (Mirin + Vorinostat; first compound 2.5 µM): 0.729
relative viability (Mirin + Vorinostat; first compound 7.906 µM): 0.561
relative viability (Mirin + Vorinostat; first compound 25 µM): 0.527

NCI-H596
relative viability ([1]; first compound 0.04 µM): 1.03
relative viability ([1]; first compound 0.1265 µM): 1.11
relative viability ([1]; first compound 0.4 µM): 0.846
relative viability ([1]; first compound 1.265 µM): 0.946
relative viability ([1]; first compound 4 µM): 1.15
relative viability ([2]; first compound 0.04 µM): 0.861
relative viability ([2]; first compound 0.1265 µM): 1.13
relative viability ([2]; first compound 0.4 µM): 0.818
relative viability ([2]; first compound 4 µM): 0.966
relative viability ([3]; first compound 0.04 µM): 1.24
relative viability ([3]; first compound 0.1265 µM): 0.945
relative viability ([3]; first compound 0.4 µM): 0.828
relative viability ([3]; first compound 1.265 µM): 0.743
relative viability ([3]; first compound 4 µM): 1.01
relative viability (Mirin + Vorinostat; first compound 0.25 µM): 0.727
relative viability (Mirin + Vorinostat; first compound 0.7906 µM): 0.474
relative viability (Mirin + Vorinostat; first compound 2.5 µM): 0.641
relative viability (Mirin + Vorinostat; first compound 7.906 µM): 0.758
relative viability (Mirin + Vorinostat; first compound 25 µM): 0.589

NCI-H647
relative viability ([1]; first compound 0.04 µM): 1.3
relative viability ([1]; first compound 0.1265 µM): 0.938
relative viability ([1]; first compound 1.265 µM): 0.884
relative viability ([1]; first compound 4 µM): 0.955
relative viability ([2]; first compound 0.04 µM): 1.29
relative viability ([2]; first compound 0.1265 µM): 1.12
relative viability ([2]; first compound 0.4 µM): 1.21
relative viability ([2]; first compound 1.265 µM): 1.13
relative viability ([2]; first compound 4 µM): 1.41
relative viability ([3]; first compound 0.04 µM): 0.338
relative viability ([3]; first compound 0.1265 µM): 0.267
relative viability ([3]; first compound 0.4 µM): 0.29
relative viability ([3]; first compound 1.265 µM): 0.146
relative viability ([3]; first compound 4 µM): 0.0969
relative viability (Mirin + Vorinostat; first compound 0.25 µM): 0.4
relative viability (Mirin + Vorinostat; first compound 0.7906 µM): 0.536
relative viability (Mirin + Vorinostat; first compound 2.5 µM): 0.586
relative viability (Mirin + Vorinostat; first compound 7.906 µM): 0.623
relative viability (Mirin + Vorinostat; first compound 25 µM): 0.48

NCI-H650
relative viability ([1]; first compound 0.04 µM): 0.68
relative viability ([1]; first compound 0.1265 µM): 0.797
relative viability ([1]; first compound 0.4 µM): 0.672
relative viability ([1]; first compound 1.265 µM): 0.841
relative viability ([1]; first compound 4 µM): 0.959
relative viability ([2]; first compound 0.04 µM): 1.16
relative viability ([2]; first compound 0.1265 µM): 1.09
relative viability ([2]; first compound 0.4 µM): 1.05
relative viability ([2]; first compound 1.265 µM): 0.934
relative viability ([2]; first compound 4 µM): 1.03
relative viability ([3]; first compound 0.04 µM): 1.01
relative viability ([3]; first compound 0.1265 µM): 0.639
relative viability ([3]; first compound 0.4 µM): 0.41
relative viability ([3]; first compound 1.265 µM): 0.283
relative viability ([3]; first compound 4 µM): 0.271
relative viability (Mirin + Vorinostat; first compound 0.25 µM): 0.484
relative viability (Mirin + Vorinostat; first compound 0.7906 µM): 0.338
relative viability (Mirin + Vorinostat; first compound 2.5 µM): 0.414
relative viability (Mirin + Vorinostat; first compound 7.906 µM): 0.389
relative viability (Mirin + Vorinostat; first compound 25 µM): 0.448

NCI-H661
relative viability ([1]; first compound 0.04 µM): 0.845
relative viability ([1]; first compound 0.1265 µM): 0.809
relative viability ([1]; first compound 0.4 µM): 0.696
relative viability ([1]; first compound 4 µM): 0.782
relative viability ([2]; first compound 0.04 µM): 0.973
relative viability ([2]; first compound 0.1265 µM): 1.03
relative viability ([2]; first compound 0.4 µM): 1.04
relative viability ([2]; first compound 1.265 µM): 0.943
relative viability ([2]; first compound 4 µM): 0.834
relative viability ([3]; first compound 0.04 µM): 0.377
relative viability ([3]; first compound 0.1265 µM): 0.367
relative viability ([3]; first compound 0.4 µM): 0.37
relative viability ([3]; first compound 1.265 µM): 0.372
relative viability ([3]; first compound 4 µM): 0.266
relative viability (Mirin + Vorinostat; first compound 0.25 µM): 0.789
relative viability (Mirin + Vorinostat; first compound 0.7906 µM): 0.839
relative viability (Mirin + Vorinostat; first compound 2.5 µM): 0.74
relative viability (Mirin + Vorinostat; first compound 7.906 µM): 0.776
relative viability (Mirin + Vorinostat; first compound 25 µM): 0.77

NCI-H727
relative viability ([1]; first compound 0.04 µM): 0.998
relative viability ([1]; first compound 0.1265 µM): 0.689
relative viability ([1]; first compound 0.4 µM): 0.876
relative viability ([1]; first compound 4 µM): 0.744
relative viability ([2]; first compound 0.04 µM): 0.854
relative viability ([2]; first compound 0.1265 µM): 0.811
relative viability ([2]; first compound 0.4 µM): 0.693
relative viability ([2]; first compound 1.265 µM): 0.573
relative viability ([2]; first compound 4 µM): 0.949
relative viability ([3]; first compound 0.04 µM): 0.609
relative viability ([3]; first compound 0.1265 µM): 0.666
relative viability ([3]; first compound 0.4 µM): 0.586
relative viability ([3]; first compound 1.265 µM): 0.478
relative viability ([3]; first compound 4 µM): 0.502
relative viability (Mirin + Vorinostat; first compound 0.25 µM): 0.912
relative viability (Mirin + Vorinostat; first compound 0.7906 µM): 1.27
relative viability (Mirin + Vorinostat; first compound 2.5 µM): 1.24
relative viability (Mirin + Vorinostat; first compound 7.906 µM): 1.23
relative viability (Mirin + Vorinostat; first compound 25 µM): 1.19

NCI-H838
relative viability ([1]; first compound 0.04 µM): 0.945
relative viability ([1]; first compound 0.1265 µM): 0.747
relative viability ([1]; first compound 0.4 µM): 0.782
relative viability ([1]; first compound 1.265 µM): 0.597
relative viability ([1]; first compound 4 µM): 1.03
relative viability ([2]; first compound 0.04 µM): 1.1
relative viability ([2]; first compound 0.1265 µM): 0.986
relative viability ([2]; first compound 0.4 µM): 0.958
relative viability ([2]; first compound 1.265 µM): 0.888
relative viability ([2]; first compound 4 µM): 1.09
relative viability ([3]; first compound 0.04 µM): 0.259
relative viability ([3]; first compound 0.1265 µM): 0.277
relative viability ([3]; first compound 0.4 µM): 0.237
relative viability ([3]; first compound 1.265 µM): 0.196
relative viability ([3]; first compound 4 µM): 0.174
relative viability (Mirin + Vorinostat; first compound 0.25 µM): 0.773
relative viability (Mirin + Vorinostat; first compound 0.7906 µM): 0.751
relative viability (Mirin + Vorinostat; first compound 2.5 µM): 0.765
relative viability (Mirin + Vorinostat; first compound 7.906 µM): 0.802
relative viability (Mirin + Vorinostat; first compound 25 µM): 0.82

NCI-H1355
relative viability ([1]; first compound 0.04 µM): 1.21
relative viability ([1]; first compound 0.1265 µM): 1.17
relative viability ([1]; first compound 0.4 µM): 1.22
relative viability ([1]; first compound 1.265 µM): 1.07
relative viability ([1]; first compound 4 µM): 1.38
relative viability ([2]; first compound 0.04 µM): 1
relative viability ([2]; first compound 0.1265 µM): 0.875
relative viability ([2]; first compound 0.4 µM): 0.85
relative viability ([2]; first compound 1.265 µM): 0.946
relative viability ([2]; first compound 4 µM): 0.793
relative viability ([3]; first compound 0.04 µM): 0.654
relative viability ([3]; first compound 0.1265 µM): 0.652
relative viability ([3]; first compound 0.4 µM): 0.582
relative viability ([3]; first compound 1.265 µM): 0.563
relative viability ([3]; first compound 4 µM): 0.569
relative viability (Mirin + Vorinostat; first compound 0.25 µM): 0.608
relative viability (Mirin + Vorinostat; first compound 0.7906 µM): 0.696
relative viability (Mirin + Vorinostat; first compound 2.5 µM): 0.683
relative viability (Mirin + Vorinostat; first compound 7.906 µM): 0.605
relative viability (Mirin + Vorinostat; first compound 25 µM): 0.699
